Laboratory results published in patent publication US12440496B2, “Natriuretic peptide receptor a agonists useful for the treatment of cardiometabolic diseases, kidney disease and diabetes” (Merck Sharp & Dohme LLC, priority 2019, dated 2025).

molecular target: T1, hNPRA (Homo sapiens, UniProt P16066); assay: NPRA Functional Cell Assay (cGMP HTRF, NPRA HEK JumpIn stable cells); type: cell-based; conditions: cGMP production, 1 hour at 37° C., 10-point dose response
T1 construct: expressed in transfected cells
T1 sequence (P16066 33-1061): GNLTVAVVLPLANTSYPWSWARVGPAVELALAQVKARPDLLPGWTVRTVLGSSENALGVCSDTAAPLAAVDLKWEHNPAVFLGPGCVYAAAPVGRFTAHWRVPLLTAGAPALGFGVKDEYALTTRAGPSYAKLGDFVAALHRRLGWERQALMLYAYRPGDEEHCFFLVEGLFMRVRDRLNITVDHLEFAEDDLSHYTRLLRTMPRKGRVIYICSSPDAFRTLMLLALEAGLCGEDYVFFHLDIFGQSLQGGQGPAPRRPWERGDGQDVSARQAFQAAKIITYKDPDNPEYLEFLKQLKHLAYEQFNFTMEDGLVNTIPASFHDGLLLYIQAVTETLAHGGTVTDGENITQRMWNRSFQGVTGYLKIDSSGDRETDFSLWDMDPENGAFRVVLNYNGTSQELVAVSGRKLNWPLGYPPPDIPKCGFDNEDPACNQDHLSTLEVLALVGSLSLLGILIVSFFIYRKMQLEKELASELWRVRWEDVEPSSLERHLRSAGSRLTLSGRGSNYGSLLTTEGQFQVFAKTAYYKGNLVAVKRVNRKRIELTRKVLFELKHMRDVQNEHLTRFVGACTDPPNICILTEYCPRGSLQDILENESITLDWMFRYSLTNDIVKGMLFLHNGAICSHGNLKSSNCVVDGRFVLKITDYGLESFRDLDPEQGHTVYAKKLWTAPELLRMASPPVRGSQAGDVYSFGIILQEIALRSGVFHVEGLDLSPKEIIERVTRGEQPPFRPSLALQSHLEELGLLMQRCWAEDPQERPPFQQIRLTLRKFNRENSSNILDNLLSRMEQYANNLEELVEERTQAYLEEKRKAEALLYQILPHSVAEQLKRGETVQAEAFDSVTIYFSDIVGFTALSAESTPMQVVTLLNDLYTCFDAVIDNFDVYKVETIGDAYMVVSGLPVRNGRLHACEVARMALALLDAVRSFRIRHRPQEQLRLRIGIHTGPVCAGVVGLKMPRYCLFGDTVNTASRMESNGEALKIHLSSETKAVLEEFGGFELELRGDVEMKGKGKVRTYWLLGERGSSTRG
From the text: NPRA Functional Cell Assay
Assay Buffer components HEPES and Opti-MEM® I Reduced-Serum with Glutamine (no phenol red) were from Gibco/Invitrogen (Thermo Fisher Scientific, Waltham, MA USA). 3-Isobutyl-1-methylxanthine (IBMX) and 4-(3-Butoxy-4-methoxybenzyl) imidazolidin-2-one (RO20) were obtained from Sigma-Aldrich (St. Louis, MO, USA). DPBS (Dulbecco's phosphate-buffered saline) without Ca2+ and Mg2+ was purchased from GE Healthcare Bio-Sciences (Pittsburgh, PA, USA). 384 well white Optiplates were from Perkin Elmer (Atlantic Highlands, NJ, USA). Human ANP (Atrial Natriuretic Peptide) (1-28) was purchased from Sigma-Aldrich (Catalog #A1663) and rat ANP (1-28) from Bachem (Torrance, CA, USA) (Catalog #H2100). Human-BNP (Human-Brain Natriuretic Peptide) (1-32 AA) was purchased from American Peptide Company (Sunnyvale, CA, USA) (product No. 14-1-90). cGMP kits were purchased from Cisbio. The assay ready frozen (ARF) Human/rat/dog NPRA HEK JumpIn Stable frozen cells (low passage number 5-11) were prepared in-house.
Test compounds were titrated in DMSO in a 10-point dose response in a separate step followed by a 100-fold dilution into the reaction. Positive response for each assay was determined using 10 nM rat-ANP peptide (rat cells) or 50 nM h-ANP peptide (human and dog cells).
Cells were thawed, washed with DPBS and resuspended in assay buffer (Opti-MEM+Glutamine, phenol red free media, 10 mM HEPES, 100 uM IBMX and 100 uM RO20) that was warmed to 37° C. Cells were then transferred to microplates via a Microplate Combi dispenser at a density of 1500, 400 and 1200 cells/well for human, rat and dog cells respectively, followed by acoustic transfer (Echo) of compound.
(§1) Compounds and cells were incubated at 37° C. with 5% CO2 for 1 hour, after which the cells were lysed and cGMP was captured using a CisBio cGMP HTRF assay kit. The TRF signal was measured with an Envision plate reader (emission set to 615 and 665 nm) after 1 hour incubation at ambient temperature. The TRF signal was converted to [cGMP] through the use of a cGMP calibration curve on each microplate. EC50's were generated from the resulting dose response curves by use of a 4 parameter logistic algorithm.
Assay Buffer components HEPES and Opti-MEM® I Reduced-Serum with Glutamine (no phenol red) were from Gibco/Invitrogen. 3-Isobutyl-1-methylxanthine (IBMX) and 4-(3-Butoxy-4-methoxybenzyl) imidazolidin-2-one (RO20) were obtained from Sigma. DPBS (Dulbecco's phosphate-buffered saline) without Ca2+ and Mg2+ was purchased from GE Healthcare Bio-Sciences (Pittsburgh, PA, USA). 384 well white Optiplates were from Perkin Elmer (Atlantic Highlands, NJ, USA). Human ANP (1-28) was purchased from Sigma (A1663) and rat ANP (1-28) from Bachem (H2100). Human-BNP (1-32 AA) was purchased from American Peptide Company (Sunnyvale, CA, USA) (product No. 14-1-90). cGMP kits were purchased from Cisbio (Bedford, MA, USA). The assay ready frozen (ARF) Human/rat/dog NPRA HEK JumpIn Stable frozen cells (low passage number 5-11) were prepared in-house.
as §1, with “Envision®” for “Envision”, “reader (Perkin Elmer)” for “reader”
hNPRA EC50 (nM) were determined for the compounds of Example 1 through Example 273 and are reported in the Experimental section of this application.

| Compound | EC50 [µM] |
| --- | --- |
| CC(C)(C)[C@H]1CCc2nc3sc(C(=O)N[C@H](CCN4CCC(F)CC4)c4cccc(NS(C)(=O)=O)c4)cc3cc2C1 (racemic) [Example 14, ammonium; methylsulfonyl-[3-[rac-(1R)-3-(4-fluoro-1-piperidyl)-1-[[rac-(6S)-6-tert-butyl-5,6,7,8-tetrahydrothieno[2,3-b]quinoline-2-carbonyl]amino]propyl]phenyl] azanide] | 0.834 |
| CC(C)(C)[C@H]1CCc2nc3sc(C(=O)N[C@H](CCNC4(CO)CCC4)c4cccc(NS(C)(=O)=O)c4)cc3cc2C1 (racemic) [Example 15, ammonium; methylsulfonyl-1-[3-[rac-(1R)-3-[[1-(hydroxymethyl)cyclobutyl]amino]-1-[[rac-(6S)-6-tert-butyl-5,6,7,8-tetrahydrothieno[2,3-b]quinoline-2-carbonyl]amino]propyl]phenyl] azanide] | 0.942 |
| CC1(O)CN(CC[C@@H](NC(=O)c2cc3cc4c(nc3s2)CC[C@H](C(C)(C)C)C4)c2cccc(NS(C)(=O)=O)c2)C1 (racemic) [Example 16, ammonium; methylsulfonyl-[3-[rac-(1R)-3-(3-hydroxy-3-methyl-azetidin-1-yl)-1-[[rac-(6S)-6-tert-butyl-5,6,7,8-tetrahydrothieno[2,3-b]quinoline-2-carbonyl]amino]propyl]phenyl] azanide] | 1.12 |
| CC(C)(C)[C@H]1CCc2nc3sc(C(=O)N[C@H](CCN4CCC(n5ccnc5)CC4)c4cccc(NS(C)(=O)=O)c4)cc3cc2C1 (racemic) [Example 17, ammonium; methylsulfonyl-[3-[rac-(1R)-3-(4-imidazol-1-y1-1-piperidy1)-1-[[rac-(6S)-6-tert-butyl-5,6,7,8-tetrahydrothieno[2,3-b]quinoline-2-carbonyl]amino]propyl]phenyl]azanide] | 1.26 |
| CC(C)(C)[C@H]1CCc2nc3sc(C(=O)N[C@H](CCN4CCCC(c5cccnc5)C4)c4cccc(NS(C)(=O)=O)c4)cc3cc2C1 (mixture of isomers) [Example 18, ammonium; methylsulfonyl-[3-[rac-(1R)-3-[3-(3-pyridyl)-1-piperidyl]-1-[rac-(6S)-6-tert-butyl-5,6,7,8-tetrahydrothieno[2,3-b]quinoline-2-carbonyl]amino]propyl]phenyl]azanide] | 1.28 |
| CC(C)(C)[C@H]1CCc2nc3sc(C(=O)N[C@H](CCN4CCCC5(CCNC5=O)C4)c4cccc(NS(C)(=O)=O)c4)cc3cc2C1 (mixture of isomers) [Example 19, ammonium; methylsulfonyl-[3-[rac-(1R)-3-(1-oxo-2,9-diazaspiro[4.5]decan-9-y1)-1-[[rac-(6S)-6-tert-butyl-5,6,7,8-tetrahydrothieno[2,3-b]quinoline-2-carbonyl]amino]propyl]phenyl]azanide] | 1.58 |
| CC(C)(C)[C@H]1CCc2nc3sc(C(=O)N[C@H](CCN4CCC4)c4cccc(NS(C)(=O)=O)c4)cc3cc2C1 (racemic) [Example 20, ammonium; methylsulfonyl-[3-[rac-(1R)-3-(azetidin-1-yl)-1-[[rac-(6S)-6-tert-butyl-5,6,7,8-tetrahydrothieno[2,3-b]quinoline-2-carbonyl]amino]propyl]phenyl]azanide] | 1.65 |
| CC(C)(C)[C@H]1CCc2nc3sc(C(=O)N[C@H](CCNC4COC4)c4cccc(NS(C)(=O)=O)c4)cc3cc2C1 (racemic) [Example 21, ammonium; methylsulfonyl-[3-[rac-(1R)-3-(oxetan-3-ylamino)-1-[[rac-(6S)-6-tert-butyl-5,6,7,8-tetrahydrothieno[2,3-b]quinoline-2-carbonyl]amino]propyl]phenyl]azanide] | 1.77 |
| CC(C)(C)[C@H]1CCc2nc3sc(C(=O)N[C@H](CCN4CC(c5ccccn5)C4)c4cccc(NS(C)(=O)=O)c4)cc3cc2C1 (racemic) [Example 22, ammonium; methylsulfonyl-[3-[rac-(1R)-3-[3-(2-pyridyl)azetidin-1-y1]-1-[[rac-(6S)-6-tert-butyl-5,6,7,8-tetrahydrothieno[2,3-b]quinoline-2-carbonyl]amino]propyl]phenyl] azanide] | 1.79 |
| CC(C)(C)[C@H]1CCc2nc3sc(C(=O)N[C@H](CCN4CCC(c5ccccn5)CC4)c4cccc(NS(C)(=O)=O)c4)cc3cc2C1 (racemic) [Example 23, ammonium;methylsulfonyl-[3-[rac-(1R)-3-[4-(2-pyridyl)-1-piperidyl]-1-[[rac-(6S)-6-tert-butyl-5,6,7,8-tetrahydrothieno[2,3-b]quinoline-2carbonyl]amino]propyl]phenyl]azanide] | 1.79 |
| CC(C)(C)[C@H]1CCc2nc3sc(C(=O)N[C@H](CCN[C@H]4CCCC(F)(F)[C@@H]4O)c4cccc(NS(C)(=O)=O)c4)cc3cc2C1 (racemic) [Example 24, ammonium; methylsulfony 1-[3-[rac-(1R)-1-[[rac-(6S)-6-tert-buty1-5,6,7,8-tetrahydrothieno[2,3-b]quinoline-2-carbonyl]amino]-3-[[rac-(1S,2R)-3,3-difluoro-2-hydroxy-cyclohexyl]amino]propyl]phenyl]azanide] | 1.97 |
| CN(C)CC[C@@H](NC(=O)c1cc2cc3c(nc2s1)CC[C@H](C(C)(C)C)C3)c1ccc(-c2ccc(=O)[nH]c2)cc1 (racemic) [Example 25, dimethyl-[rac-(3R)-3-[4-(6-oxo-1H-pyridin-3-yl)phenyl]-3-[{rac-(6S)-6-tert-butyl-5,6,7,8-tetrahydrothieno[2,3-b]quinoline-2-carbonyl]amino]propyl] ammonium;formate] | 0.218 |
| CC(C)(C)[C@H]1CCc2nc3sc(C(=O)N[C@H](CCN[C@H]4C[C@@H](CO)[C@H](O)[C@@H]4O)c4ccc(-c5ccc(=O)[nH]c5)cc4)cc3cc2C1 (racemic) [Example 26, [rac-(1S,2R,3S,4S)-2,3-dihydroxy-4-(hydroxymethyl)cyclopentyl]-[rac-(3R)-3-[4-(6-oxo-1H-pyridin-3-yl)phenyl]-3-[rac-(6S)-6-tert-butyl-5,6,7,8-tetrahydrothieno[2,3-b]quinoline-2-carbonyl]amino]propyl] ammonium;formate] | 0.386 |
